Data from ChEMBL document CHEMBL1144919, “Synthesis of novel thrombin inhibitors. Use of ring-closing metathesis reactions for synthesis of P2 cyclopentene- and cyclohexenedicarboxylic acid derivatives” (J Med Chem, 2003).

Target: Prothrombin (Homo sapiens, UniProt P00734)
Test: In vitro inhibitory concentration of compound against human thrombin

SMILES | IC50
CCc1cccc(N(CC)C(=O)C2=CCCC2C(=O)NCc2ccc(C(=N)N)cc2)c1 (stereo not given) | 270 nM
Cc1ccccc1N(CC(=O)O)C(=O)C1=C(C(=O)NCc2ccc(C(=N)N)cc2)CCC1 | 120000 nM
CCN(C(=O)C1=CCCC1C(=O)NCc1ccc(C(=N)N)cc1)c1cccc(OC)c1 (stereo not given) | 240 nM
N=C(N)c1ccc(CNC(=O)C2=C(C(=O)NC3CCCCC3)CCC2)cc1 | 19000 nM
CCN(C(=O)C1=CCCCC1C(=O)NCc1ccc(C(=N)N)cc1)c1ccccc1 (stereo not given) | 3800 nM
CCN(C(=O)C1=CCCC1C(=O)NCc1ccc(C(=N)N)cc1)c1cc(Cl)ccc1C (stereo not given) | 220 nM
CCc1cccc(N(C(=O)C2=CCCC2C(=O)NCc2ccc(C(=N)N)cc2)C2CCCCC2)c1 (stereo not given) | 260 nM
CCN(C(=O)C1=CCCCC1C(=O)NCc1ccc(C(=N)N)cc1)c1ccccc1C (stereo not given) | 4600 nM
CC1Cc2ccccc2N1C(=O)C1=CCCC1C(=O)NCc1ccc(C(=N)N)cc1 (stereo not given) | 3400 nM
CCN(C(=O)C1=CCCC1C(=O)NCc1ccc(C(=N)N)cc1)c1cc(OC)cc(OC)c1 (stereo not given) | 210 nM
CCN(C(=O)C1=CCCC1C(=O)NCc1ccc(C(=N)N)cc1)c1ccc(OC)cc1 (stereo not given) | 940 nM
CCN(C(=O)C1=CCCC1C(=O)NCc1ccc(C(=N)N)cc1)c1ccccc1F (stereo not given) | 350 nM
N=C(N)c1ccc(CNC(=O)C2CCCC=C2C(=O)NCc2ccccc2)cc1 (stereo not given) | 109000 nM
CCN(C(=O)C1=CCCC1C(=O)NCc1ccc(C(=N)N)cc1)c1cccc(F)c1 (stereo not given) | 630 nM
N=C(N)c1ccc(CNC(=O)C2CCCC=C2C(=O)Nc2ccccc2)cc1 (stereo not given) | 130000 nM
CCN(C(=O)C1CCC=C1C(=O)NCc1ccc(C(=N)N)cc1)c1cccc(OC)c1 (stereo not given) | 7800 nM
N=C(N)c1ccc(CNC(=O)C2CCC=C2C(=O)N2CCc3ccccc32)cc1 (stereo not given) | 4600 nM
COc1ccc(OC)c(N(C(=O)C2=CCCC2C(=O)NCc2ccc(C(=N)N)cc2)C2CCCCC2)c1 (stereo not given) | 49 nM

SMILES | IC50
CCN(C(=O)C1=CCCC1C(=O)NCc1ccc(C(=N)N)cc1)c1ccccc1OC (stereo not given) | 250 nM
CCN(C(=O)C1CCC=C1C(=O)NCc1ccc(C(=N)N)cc1)c1ccccc1F (stereo not given) | 93000 nM
Cc1ccccc1N(CC(=O)O)C(=O)C1=CCCC1C(=O)NCc1ccc(C(=N)N)cc1 (stereo not given) | 1300 nM
CCN(C(=O)C1=CCC[C@H]1C(=O)NCc1ccc(C(=N)N)cc1)c1cccc(OC)c1 | 120 nM
CCN(C(=O)C1=C(C(=O)NCc2ccc(C(=N)N)cc2)CCC1)c1ccccc1 | 28000 nM
CCN(C(=O)C1=CCCC1C(=O)NCc1ccc(C(=N)N)cc1)c1ccccc1C (stereo not given) | 680 nM
CCN(C(=O)C1=C(C(=O)NCc2ccc(C(=N)N)cc2)CCC1)c1cc(Cl)ccc1C | 23000 nM
CCN(C(=O)C1=CCCC1C(=O)NCc1ccc(C(=N)N)cc1)c1cc(OC)ccc1OC (stereo not given) | 73 nM
N=C(N)c1ccc(CNC(=O)C2=C(C(=O)N3CCc4ccccc43)CCC2)cc1 | > 130000 nM
N=C(N)c1ccc(CNC(=O)C2CCC=C2C(=O)N2CCCCC2)cc1 (stereo not given) | 6000 nM
N=C(N)c1ccc(CNC(=O)C2CCCC=C2C(=O)NC2CCCCC2)cc1 (stereo not given) | > 130000 nM
CCN(C(=O)C1CCC=C1C(=O)NCc1ccc(C(=N)N)cc1)c1ccccc1 (stereo not given) | 16000 nM
CCN(C(=O)C1=CCCC1C(=O)NCc1ccc(C(=N)N)cc1)c1ccccc1 (stereo not given) | 970 nM
N=C(N)c1ccc(CNC(=O)C2CCCC=C2C(=O)N2CCCCC2)cc1 (stereo not given) | 38000 nM
CCN(C(=O)C1=CCCC1C(=O)NCc1ccc(C(=N)N)cc1)c1cccc(Cl)c1 (stereo not given) | 390 nM
CCN(C(=O)C1=C(C(=O)NCc2ccc(C(=N)N)cc2)CCC1)c1cccc(OC)c1 | 24000 nM
N=C(N)NCCC[C@H](NC(=O)[C@@H]1CCCN1C(=O)C(N)Cc1ccccc1)C(=O)O (stereo in doubt) | 0.017 nM
